Source: article PMC2810227, “3-O-Methylfunicone, a Selective Inhibitor of Mammalian Y-Family DNA Polymerases from an Australian Sea Salt Fungal Strain” (Marine Drugs, 2009)

Experiments:
[1] = biological target: T1, human topoisomerase II (Homo sapiens, UniProt P11388); assay: DNA topoisomerase II assay; format: biochemical; conditions: 100 μM
T1 construct: Purified human placenta DNA topoisomerases I and II were purchased from TopoGen, Inc; purchased TopoGen, Inc. (Columbus, OH, USA); host or cells: human placenta (tissue-purified)
Text: Pol α was purified from calf thymus by immuno-affinity column chromatography, as described by Tamai et al.. Recombinant rat pol β was purified from E. coli JMpβ5, as described by Date et al.. The human pol γ catalytic gene was cloned into pFastBac. Histidine-tagged enzyme was expressed using the BAC-TO-BAC HT Baculovirus Expression System according to the supplier’s manual (Life Technologies, MD, USA) and purified using ProBoundresin (Invitrogen Japan, Tokyo, Japan). Human pols δ and ɛ were purified by nuclear fractionation of human peripheral blood cancer cells (Molt-4) using the second subunit of pols δ and ɛ-conjugated affinity column chromatography, respectively. A truncated form of human pol η (residues 1–511) tagged with His6 at its C-terminal was expressed in E. coli cells and purified as described by Kusumoto et al.. […]
The activities of calf primase of pol α, human telomerase, T7 RNA polymerase, mouse IMP dehydrogenase, human DNA topoisomerases I and II, T4 polynucleotide kinase and bovine DNase I were measured in standard assays according to the manufacturer’s specifications, as described by Tamiya-Koizumi et al., Oda et al., Nakayama et al., Mizushina et al., Ishimaru et al., Soltis et al. and Lu et al., respectively.

[2] = biological target: T2, rat pol β (Rattus norvegicus, UniProt P06766); assay: DNA polymerase assay, pol β; format: biochemical; conditions: 100 μM
T2 construct: made in house; host or cells: E. coli JMpβ5
Text: (§1) Pol α was purified from calf thymus by immuno-affinity column chromatography, as described by Tamai et al.. Recombinant rat pol β was purified from E. coli JMpβ5, as described by Date et al.. The human pol γ catalytic gene was cloned into pFastBac. Histidine-tagged enzyme was expressed using the BAC-TO-BAC HT Baculovirus Expression System according to the supplier’s manual (Life Technologies, MD, USA) and purified using ProBoundresin (Invitrogen Japan, Tokyo, Japan). Human pols δ and ɛ were purified by nuclear fractionation of human peripheral blood cancer cells (Molt-4) using the second subunit of pols δ and ɛ-conjugated affinity column chromatography, respectively. A truncated form of human pol η (residues 1–511) tagged with His6 at its C-terminal was expressed in E. coli cells and purified as described by Kusumoto et al.. A recombinant mouse pol ι tagged with His6 at its C-terminal was expressed and purified by Ni-NTA column chromatography as described elsewhere (Masutani et al., in preparation). […]
(§2) The compounds were dissolved in distilled dimethyl sulfoxide (DMSO) at various concentrations and sonicated for 30 sec. […] Activity without the inhibitor was considered 100%, and the remaining activity at each concentration of the inhibitor was determined relative to this value. […]

[3] = biological target: T3, human pol γ (Homo sapiens, UniProt P54098); assay: DNA polymerase assay, pol γ; format: biochemical; conditions: 100 μM
T3 construct: His; made in house
Text: as §1, §2

[4] = test system: HUVEC (human umbilical vein endothelial cells); assay: Proliferation and growth of normal cells, HUVEC; format: cell-based; conditions: data not shown
[5] = biological target: T4, calf thymus TdT (Bos taurus, UniProt P06526); assay: DNA polymerase assay, TdT; format: biochemical; conditions: 100 μM
T4 construct: purchased Stratagene Cloning Systems (La Jolla, CA, USA)
T4 sequence (P06526 whole entry): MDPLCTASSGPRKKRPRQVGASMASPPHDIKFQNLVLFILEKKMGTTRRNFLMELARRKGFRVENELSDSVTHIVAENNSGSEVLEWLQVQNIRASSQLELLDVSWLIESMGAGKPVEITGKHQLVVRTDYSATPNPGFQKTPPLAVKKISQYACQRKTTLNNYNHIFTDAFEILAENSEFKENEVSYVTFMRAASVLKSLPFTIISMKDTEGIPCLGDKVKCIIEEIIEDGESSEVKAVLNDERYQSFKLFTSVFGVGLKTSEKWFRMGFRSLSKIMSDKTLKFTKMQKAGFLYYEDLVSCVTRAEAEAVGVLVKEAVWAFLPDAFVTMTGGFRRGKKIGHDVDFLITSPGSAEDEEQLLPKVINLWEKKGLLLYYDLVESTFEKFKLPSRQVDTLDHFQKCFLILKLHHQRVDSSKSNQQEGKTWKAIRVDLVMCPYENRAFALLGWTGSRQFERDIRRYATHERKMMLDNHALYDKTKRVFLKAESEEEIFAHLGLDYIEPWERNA
Text: as §1, §2

[6] = biological target: T5, Klenow fragment of E. coli pol I (Escherichia coli, UniProt P00582); assay: DNA polymerase assay, Klenow fragment; format: biochemical; conditions: 100 μM
T5 construct: the Klenow fragment of pol I from E. coli; purchased Worthington Biochemical Corp. (Freehold, NJ, USA)
T5 sequence (P00582 324-928): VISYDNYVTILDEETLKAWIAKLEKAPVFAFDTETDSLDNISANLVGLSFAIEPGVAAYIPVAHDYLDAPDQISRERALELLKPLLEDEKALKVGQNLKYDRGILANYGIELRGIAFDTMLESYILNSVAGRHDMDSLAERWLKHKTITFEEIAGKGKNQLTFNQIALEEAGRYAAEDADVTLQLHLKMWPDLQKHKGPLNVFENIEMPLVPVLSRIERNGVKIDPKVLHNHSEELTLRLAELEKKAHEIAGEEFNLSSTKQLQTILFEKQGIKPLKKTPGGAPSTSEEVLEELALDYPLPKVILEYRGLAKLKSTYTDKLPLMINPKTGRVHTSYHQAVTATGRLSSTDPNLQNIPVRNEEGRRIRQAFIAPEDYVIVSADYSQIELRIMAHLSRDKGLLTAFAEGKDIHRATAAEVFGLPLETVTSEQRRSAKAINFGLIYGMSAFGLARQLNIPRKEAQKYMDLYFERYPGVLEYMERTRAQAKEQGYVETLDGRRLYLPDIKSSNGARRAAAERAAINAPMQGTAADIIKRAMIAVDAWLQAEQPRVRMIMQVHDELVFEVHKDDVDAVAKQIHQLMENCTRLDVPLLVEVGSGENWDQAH
Text: as §1, §2

[7] = biological target: T6, fruit fly pol δ (Drosophila melanogaster, UniProt P54358); assay: DNA polymerase assay, insect pol δ; format: biochemical; conditions: 100 μM
T6 construct: purified from early embryos of Drosophila melanogaster; from tissue; host or cells: early embryos of Drosophila melanogaster

[8] = biological target: T7, fruit fly pol α (Drosophila melanogaster, UniProt P26019); assay: DNA polymerase assay, insect pol α; format: biochemical; conditions: 100 μM
T7 construct: purified from early embryos of Drosophila melanogaster; from tissue; host or cells: early embryos of Drosophila melanogaster
T7 sequence (P26019 whole entry): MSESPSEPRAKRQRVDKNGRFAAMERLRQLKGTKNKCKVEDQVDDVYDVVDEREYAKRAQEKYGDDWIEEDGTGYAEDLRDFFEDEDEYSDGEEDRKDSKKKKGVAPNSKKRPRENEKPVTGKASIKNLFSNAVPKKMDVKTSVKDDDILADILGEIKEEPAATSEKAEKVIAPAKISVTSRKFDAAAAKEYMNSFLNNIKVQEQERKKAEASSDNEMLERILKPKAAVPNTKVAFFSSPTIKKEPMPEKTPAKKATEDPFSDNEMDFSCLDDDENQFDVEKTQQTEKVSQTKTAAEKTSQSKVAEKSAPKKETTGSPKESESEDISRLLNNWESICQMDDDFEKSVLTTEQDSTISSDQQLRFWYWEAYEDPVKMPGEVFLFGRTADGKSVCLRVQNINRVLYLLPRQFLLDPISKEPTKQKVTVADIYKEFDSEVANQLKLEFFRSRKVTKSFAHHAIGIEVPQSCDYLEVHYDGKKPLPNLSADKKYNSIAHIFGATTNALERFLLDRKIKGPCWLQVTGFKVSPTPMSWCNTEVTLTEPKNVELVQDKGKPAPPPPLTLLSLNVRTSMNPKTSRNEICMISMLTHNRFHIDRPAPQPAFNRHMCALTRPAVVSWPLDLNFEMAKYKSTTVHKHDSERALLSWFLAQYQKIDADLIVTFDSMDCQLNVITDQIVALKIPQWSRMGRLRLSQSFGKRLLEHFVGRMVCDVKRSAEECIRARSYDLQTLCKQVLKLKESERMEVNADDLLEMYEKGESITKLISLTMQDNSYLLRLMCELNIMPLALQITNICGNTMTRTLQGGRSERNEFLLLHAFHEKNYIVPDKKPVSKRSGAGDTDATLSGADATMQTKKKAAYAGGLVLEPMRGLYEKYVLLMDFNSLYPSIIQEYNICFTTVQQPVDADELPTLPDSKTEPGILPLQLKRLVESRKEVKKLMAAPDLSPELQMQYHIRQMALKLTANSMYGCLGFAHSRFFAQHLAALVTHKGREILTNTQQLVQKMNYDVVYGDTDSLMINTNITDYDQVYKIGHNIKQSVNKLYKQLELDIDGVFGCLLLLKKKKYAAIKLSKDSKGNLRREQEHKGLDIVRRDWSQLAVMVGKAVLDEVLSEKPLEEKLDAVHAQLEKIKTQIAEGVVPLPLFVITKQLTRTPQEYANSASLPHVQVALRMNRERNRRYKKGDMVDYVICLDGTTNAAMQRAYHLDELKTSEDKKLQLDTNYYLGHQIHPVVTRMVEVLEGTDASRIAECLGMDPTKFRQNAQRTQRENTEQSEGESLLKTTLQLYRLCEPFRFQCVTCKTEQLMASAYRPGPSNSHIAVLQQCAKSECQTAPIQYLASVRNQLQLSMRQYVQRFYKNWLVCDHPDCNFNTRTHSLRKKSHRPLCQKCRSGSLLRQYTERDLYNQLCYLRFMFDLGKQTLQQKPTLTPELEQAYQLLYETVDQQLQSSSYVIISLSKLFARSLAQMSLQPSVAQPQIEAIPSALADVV
T7 sequence (Q9VB62 whole entry partner): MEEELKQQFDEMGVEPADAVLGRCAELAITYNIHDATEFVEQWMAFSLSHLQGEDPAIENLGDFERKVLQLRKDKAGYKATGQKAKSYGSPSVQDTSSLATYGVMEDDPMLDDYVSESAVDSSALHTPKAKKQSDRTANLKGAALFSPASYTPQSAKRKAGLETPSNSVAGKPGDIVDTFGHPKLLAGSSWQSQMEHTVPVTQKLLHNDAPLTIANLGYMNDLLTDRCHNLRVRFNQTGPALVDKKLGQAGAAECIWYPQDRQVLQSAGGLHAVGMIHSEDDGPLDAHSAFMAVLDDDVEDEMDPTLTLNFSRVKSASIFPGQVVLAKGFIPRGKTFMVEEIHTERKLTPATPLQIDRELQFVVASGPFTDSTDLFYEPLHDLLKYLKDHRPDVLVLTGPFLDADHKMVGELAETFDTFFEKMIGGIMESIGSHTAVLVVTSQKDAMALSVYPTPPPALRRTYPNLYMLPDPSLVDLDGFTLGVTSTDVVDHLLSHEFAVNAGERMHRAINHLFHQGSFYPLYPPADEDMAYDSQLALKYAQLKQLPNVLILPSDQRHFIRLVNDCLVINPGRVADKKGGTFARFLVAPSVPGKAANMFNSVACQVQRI
T7 sequence (Q9VPH2 whole entry partner): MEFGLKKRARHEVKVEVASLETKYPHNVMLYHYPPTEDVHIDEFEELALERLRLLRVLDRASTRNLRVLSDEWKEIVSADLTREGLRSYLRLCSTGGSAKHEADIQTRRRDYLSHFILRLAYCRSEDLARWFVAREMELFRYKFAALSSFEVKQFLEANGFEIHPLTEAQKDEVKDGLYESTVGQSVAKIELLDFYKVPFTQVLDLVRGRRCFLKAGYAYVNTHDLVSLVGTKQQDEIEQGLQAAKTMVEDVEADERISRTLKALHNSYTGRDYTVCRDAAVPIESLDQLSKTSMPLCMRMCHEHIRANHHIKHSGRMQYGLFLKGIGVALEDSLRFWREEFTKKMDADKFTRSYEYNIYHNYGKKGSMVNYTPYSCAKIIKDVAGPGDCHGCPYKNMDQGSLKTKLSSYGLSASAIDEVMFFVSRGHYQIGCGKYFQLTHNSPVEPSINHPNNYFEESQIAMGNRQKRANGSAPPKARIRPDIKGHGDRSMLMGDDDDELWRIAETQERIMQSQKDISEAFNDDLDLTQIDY
T7 sequence (Q24317 whole entry partner): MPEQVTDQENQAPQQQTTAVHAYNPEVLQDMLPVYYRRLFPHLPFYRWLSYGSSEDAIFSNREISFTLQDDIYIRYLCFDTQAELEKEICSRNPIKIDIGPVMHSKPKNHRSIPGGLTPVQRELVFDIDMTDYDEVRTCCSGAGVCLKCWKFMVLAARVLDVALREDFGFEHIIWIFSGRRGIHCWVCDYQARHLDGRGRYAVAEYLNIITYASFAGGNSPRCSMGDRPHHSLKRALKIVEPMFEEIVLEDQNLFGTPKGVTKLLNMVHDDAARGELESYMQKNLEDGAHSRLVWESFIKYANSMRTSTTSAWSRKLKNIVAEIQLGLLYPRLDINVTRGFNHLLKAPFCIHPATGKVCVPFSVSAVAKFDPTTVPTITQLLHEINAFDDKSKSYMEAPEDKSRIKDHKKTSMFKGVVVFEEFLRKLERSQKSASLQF
Text: as §1, §2

## C/C=C/c1occ(C(=O)c2c(OC)cc(OC)cc2C(=O)OC)c(=O)c1OC [compound 1, 3-O-methylfunicone]
[1]
  effect on human topoisomerase II activity: did not influence
[2]
  effect on pol β activity: hardly influenced
[3]
  effect on pol γ activity: hardly influenced
[4]
  effect on cell proliferation and growth: did not influence
[5]
  effect on TdT activity: hardly influenced
[6]
  effect on Klenow fragment of E. coli pol I activity: no effect
[7]
  effect on fruit fly pol δ activity: hardly influenced
[8]
  effect on fruit fly pol α activity: hardly influenced
